Assays:
Assay type in all cases: cell-based
[1] = biological target: T1, P2X7 receptor (Rattus norvegicus, UniProt Q64663); assay: Screen Quest Fluo-8 No Wash Calcium Assay (Bz-ATP evoked Ca2+ influx, FLIPR); conditions: rP2X7; HEK-293 cells stably transfected with P2X7 receptor, Bz-ATP at EC80, Fluo-8 NW; potency ranges A-D
T1 construct: rP2X7 (IC50; nM); other: rP2X7; HEK-293 cells stably transfected with P2X7 receptor, Bz-ATP at EC80, Fluo-8 NW; potency
T1 sequence (Q64663 1-595): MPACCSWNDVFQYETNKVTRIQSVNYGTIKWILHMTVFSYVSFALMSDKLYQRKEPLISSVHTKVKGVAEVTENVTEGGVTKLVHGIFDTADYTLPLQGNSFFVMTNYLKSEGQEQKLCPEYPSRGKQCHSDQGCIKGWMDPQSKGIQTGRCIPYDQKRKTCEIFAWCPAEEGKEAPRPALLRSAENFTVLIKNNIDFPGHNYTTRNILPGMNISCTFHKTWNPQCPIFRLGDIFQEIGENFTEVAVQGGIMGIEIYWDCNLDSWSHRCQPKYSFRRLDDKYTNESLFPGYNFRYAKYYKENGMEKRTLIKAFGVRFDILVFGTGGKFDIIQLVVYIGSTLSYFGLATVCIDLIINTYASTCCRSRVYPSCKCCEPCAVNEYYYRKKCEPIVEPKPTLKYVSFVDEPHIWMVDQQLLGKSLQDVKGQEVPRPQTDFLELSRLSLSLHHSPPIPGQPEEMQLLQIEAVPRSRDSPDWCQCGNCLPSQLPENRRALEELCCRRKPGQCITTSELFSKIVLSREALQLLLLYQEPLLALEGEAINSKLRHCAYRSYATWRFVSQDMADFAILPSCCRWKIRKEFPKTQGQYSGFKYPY
Method in brief: (§1)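 HEK-293 cells stably expressing P2X7 were loaded with Fluo-8 NW for 1 h at RT, then given compound, and 5 min later Bz-ATP at EC80. Fluorescence was read by FLIPR in low divalent cation buffer (0.3 mM Ca2+, 0 mM Mg2+). IC50 came from percent inhibition relative to reference antagonist A438079.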

[2] = biological target: T2, P2X7 receptor (Mus musculus, UniProt Q9Z1M0); assay: as above; conditions: mP2X7; HEK-293 cells stably transfected with P2X7 receptor, Bz-ATP at EC80, Fluo-8 NW; potency ranges A-D
T2 construct: mP2X7 (IC50; nM); other: mP2X7; HEK-293 cells stably transfected with P2X7 receptor, Bz-ATP at EC80, Fluo-8 NW; potency
T2 sequence (Q9Z1M0 1-595): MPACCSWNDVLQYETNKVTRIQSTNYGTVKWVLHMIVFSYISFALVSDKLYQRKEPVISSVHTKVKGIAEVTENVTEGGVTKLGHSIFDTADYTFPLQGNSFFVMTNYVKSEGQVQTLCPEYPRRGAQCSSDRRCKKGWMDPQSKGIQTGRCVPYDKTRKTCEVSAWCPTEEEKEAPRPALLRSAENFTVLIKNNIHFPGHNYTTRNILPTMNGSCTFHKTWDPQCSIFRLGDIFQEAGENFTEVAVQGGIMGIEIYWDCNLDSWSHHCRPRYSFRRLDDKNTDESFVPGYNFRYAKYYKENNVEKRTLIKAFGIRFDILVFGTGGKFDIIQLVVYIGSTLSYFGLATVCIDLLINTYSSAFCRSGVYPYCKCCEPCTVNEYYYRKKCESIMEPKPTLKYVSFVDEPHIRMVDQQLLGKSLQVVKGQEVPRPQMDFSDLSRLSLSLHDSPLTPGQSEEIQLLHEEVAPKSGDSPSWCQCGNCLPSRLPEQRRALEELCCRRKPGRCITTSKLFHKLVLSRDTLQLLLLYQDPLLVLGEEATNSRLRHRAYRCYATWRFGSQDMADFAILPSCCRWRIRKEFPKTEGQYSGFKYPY
Method in brief: as §1

[3] = biological target: T3, P2X7 receptor (Homo sapiens, UniProt Q99572); assay: Automated patch-clamp (QPatch16X) P2X7 channel assay; set-up: expressed in transfected cells; host or cells: HEK-293; conditions: HEK-293 cells expressing P2X7 channels; whole-cell, held at -80 mV; 100 microM BzATP; compound 1, 10, 100 and 1000 nM; read-out: Q-Patch (IC50)
T3 sequence (Q99572 1-595): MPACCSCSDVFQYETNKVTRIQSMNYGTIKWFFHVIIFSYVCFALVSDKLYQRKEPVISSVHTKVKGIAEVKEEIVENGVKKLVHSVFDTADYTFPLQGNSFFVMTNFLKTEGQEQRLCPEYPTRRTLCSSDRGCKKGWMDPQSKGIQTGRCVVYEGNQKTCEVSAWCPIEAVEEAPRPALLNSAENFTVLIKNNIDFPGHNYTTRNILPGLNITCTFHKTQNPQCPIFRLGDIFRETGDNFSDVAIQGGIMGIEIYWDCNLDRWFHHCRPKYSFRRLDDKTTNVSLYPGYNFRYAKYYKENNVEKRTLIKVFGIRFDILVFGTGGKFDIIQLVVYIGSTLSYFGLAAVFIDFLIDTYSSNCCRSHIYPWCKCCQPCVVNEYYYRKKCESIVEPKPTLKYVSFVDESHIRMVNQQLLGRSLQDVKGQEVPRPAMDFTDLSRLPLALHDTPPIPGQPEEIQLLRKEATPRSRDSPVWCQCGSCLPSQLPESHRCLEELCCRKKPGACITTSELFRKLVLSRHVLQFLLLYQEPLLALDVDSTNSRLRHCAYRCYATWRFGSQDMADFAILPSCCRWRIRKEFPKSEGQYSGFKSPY
Method: In order to directly monitor the block of P2X7 channel, an electrophysiological assay was developed and implemented on the QPatch16X automated electrophysiology instrument.
HEK-293 cells expressing the P2X7 channels were cultured in modified EMEM.
72 hours before experiment, 5 million cells were seeded onto T225 flasks. Just before the experiment cells were washed twice, detached from the flask with trypsin-EDTA, re-suspended in the suspension solution and placed on the QPatch 16x.
The compounds (20 mM in a 100% DMSO) stored at −20° C. were prepared the day of the experiment (a first dilution 1:20 in 100% DMSO to prepare a 1 mM stock solution, then a 1 microM solution in external solution+a serial dilution 1:10).
The standard whole-cell voltage clamp experiments were performed at room temperature. From these experiments the multihole technology was used and the data were sampled at 2 KHz.
The intracellular solution contained (mM) 135 CsF, 10 NaCl, 1 EGTA, 10 HEPES, (pH 7.2 with CsOH) whereas the extracellular contained (mM) 145 NaCl, 4 KCl, 0.5 MgCl2, 1 CaCl2, 10 HEPES, 10 Glc (pH 7.4 with NaOH).
After establishment of the seal and the passage in the whole cell configuration, the cells were held at −80 mV. The P2XR7 current was evoked by applying 100 microM of BzATP alone (4 times) and then in the presence increasing concentrations of the compound under investigation (1, 10, 100 and 1000 nM).
The pre-incubation periods 5 to 8 contain increasing concentrations of the compound of interest (1, 10, 100 and 1000 nM), as illustrated in FIGURE (application protocol).
The maximal inward current evoked by BzATP in absence or presence of increasing concentrations of the compounds under investigation was measured and normalized. The potential […] effect was measured as % of control and as IC50 determined fitting the dose-response curves data with the following equation: Y=100/(1+10^((Log IC50−X)*HillSlope))

[4] = biological target: T3, P2X7 receptor; assay: Screen Quest Fluo-8 No Wash Calcium Assay (Bz-ATP evoked Ca2+ influx, FLIPR); set-up: hP2X7 (IC50; nM); other: hP2X7; HEK-293 cells stably transfected with P2X7 receptor, Bz-ATP at EC80, Fluo-8 NW; potency; conditions: hP2X7; HEK-293 cells stably transfected with P2X7 receptor, Bz-ATP at EC80, Fluo-8 NW; potency ranges A-D
Method in brief: as §1

Row | SMILES | IC50 [1] [nM] | IC50 [2] [nM] | IC50 [3] [nM] | IC50 [4] [nM]
1 | CC(c1ccccc1)n1c(Cc2c(F)cccc2Cl)noc1=O (centres unmarked) [Example 49, 3-[(2-chloro-6-fluorophenyl)methyl]-4-(1-phenylethyl)-4,5-dihydro-1,2,4-oxadiazol-5-one] | 200 to 1000 | 1000 to 10000 | 391 | 1000 to 10000
2 | O=c1onc(Cc2c(F)cccc2Cl)n1Cc1cccc(Cl)c1Cl [Example 59, 3-[(2-chloro-6-fluorophenyl)methyl]-4-[(2,3-dichlorophenyl)methyl]-4,5-dihydro-1,2,4-oxadiazol-5-one] | 200 to 1000 | 200 to 1000 | 355 | 200 to 1000
3 | Cc1cc(Cn2c(CC3CCC(F)(F)CC3)noc2=O)no1 [Example 169, 3-[(4,4-difluorocyclohexyl)methyl]-4-[(5-methyl-1,2-oxazol-3-yl)methyl]-4,5-dihydro-1,2,4-oxadiazol-5-one] | 1000 to 10000 | > 10000 | – | > 10000
4 | O=c1onc(CC2CCC(F)(F)CC2)n1Cc1nccs1 [Example 191, 3-[(4,4-difluorocyclohexyl)methyl]-4-(1,3-thiazol-2-ylmethyl)-4,5-dihydro-1,2,4-oxadiazol-5-one] | 200 to 1000 | > 10000 | – | 1000 to 10000
5 | O=c1onc(Cc2ccccc2)n1CC1CCCCC1 [Example 126, 3-benzyl-4-(cyclohexylmethyl)-4,5-dihydro-1,2,4-oxadiazol-5-one] | 200 to 1000 | 1000 to 10000 | – | 1000 to 10000
6 | O=c1onc(Cc2cccnc2)n1CC1CCCCC1 [Example 123, 4-(cyclohexylmethyl)-3-(pyridin-3-ylmethyl)-4,5-dihydro-1,2,4-oxadiazol-5-one] | 1000 to 10000 | 1000 to 10000 | – | 1000 to 10000
7 | O=c1onc(Cc2c(F)cccc2Cl)n1CCN1CCC(F)(F)CC1 [Example 181, 3-[(2-chloro-6-fluorophenyl)methyl]-4-[2-(4,4-difluoropiperidin-1-yl)ethyl]-4,5-dihydro-1,2,4-oxadiazol-5-one] | 1000 to 10000 | 1000 to 10000 | – | 200 to 1000
8 | Cn1c(Cc2c(F)cccc2Cl)noc1=O [Example 174, 3-[(2-chloro-6-fluorophenyl)methyl]-4-methyl-4,5-dihydro-1,2,4-oxadiazol-5-one] | > 10000 | > 10000 | – | > 10000
9 | COc1cccc(Cc2noc(=O)n2CC2CCC(F)(F)CC2)c1 [Example 160, 4-[(4,4-difluorocyclohexyl)methyl]-3-[(3-methoxyphenyl)methyl]-4,5-dihydro-1,2,4-oxadiazol-5-one] | 200 to 1000 | 1000 to 10000 | – | 200 to 1000
10 | O=c1onc(Cc2ccccc2)n1Cc1c(F)cccc1Cl [Example 6, 3-benzyl-4-[(2-chloro-6-fluorophenyl)methyl]-4,5-dihydro-1,2,4-oxadiazol-5-one] | 1000 to 10000 | 1000 to 10000 | – | 1000 to 10000
11 | O=c1onc(Cc2c(F)cccc2Cl)n1Cc1ccccc1C(F)(F)F [Example 23, 3-[(2-chloro-6-fluorophenyl)methyl]-4-{[2-(trifluoromethyl)phenyl]methyl}-4,5-dihydro-1,2,4-oxadiazol-5-one] | 1000 to 10000 | > 10000 | – | 1000 to 10000

Source: US11623919B2, “Heterocyclic P2X7 antagonists” (AXXAM S.P.A., priority 2017, dated 2023)
